# US10934296B2, “4-imidazopyridazin-1-yl-benzamides as Btk inhibitors” (Merck Sharp & Dohme B.V., priority 2011, dated 2021)
# Biological target: Btk enzyme (His-Btk) (Homo sapiens (Human), UniProt Q06187)
# Experiment: Btk enzyme activity, IMAP fluorescence polarization assay
# Details: 60 min pre-incubation, 5 μM ATP, bin bounds in nM
# Sequence of Btk enzyme (His-Btk) (Q06187 whole entry): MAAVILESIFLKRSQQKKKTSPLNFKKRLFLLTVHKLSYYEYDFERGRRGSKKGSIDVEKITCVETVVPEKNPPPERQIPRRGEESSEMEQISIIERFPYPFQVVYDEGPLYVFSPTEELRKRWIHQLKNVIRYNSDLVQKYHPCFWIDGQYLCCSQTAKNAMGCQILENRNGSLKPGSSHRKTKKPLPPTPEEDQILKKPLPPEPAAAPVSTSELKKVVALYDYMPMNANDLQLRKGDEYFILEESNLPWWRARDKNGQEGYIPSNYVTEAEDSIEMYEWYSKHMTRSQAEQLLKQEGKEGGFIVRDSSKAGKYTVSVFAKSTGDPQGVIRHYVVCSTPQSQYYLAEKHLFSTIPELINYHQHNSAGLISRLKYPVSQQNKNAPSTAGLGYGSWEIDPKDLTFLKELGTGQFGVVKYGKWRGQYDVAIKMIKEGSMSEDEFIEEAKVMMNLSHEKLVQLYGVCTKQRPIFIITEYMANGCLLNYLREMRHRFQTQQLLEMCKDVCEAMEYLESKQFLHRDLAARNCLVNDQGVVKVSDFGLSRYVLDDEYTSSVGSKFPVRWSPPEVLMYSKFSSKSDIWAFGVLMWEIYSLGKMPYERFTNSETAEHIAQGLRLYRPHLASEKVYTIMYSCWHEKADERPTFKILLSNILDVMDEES
row,Compound,EC50 Btk activity values [nM]
1,"Nc1nccn2c([C@@H]3CCCN3C(=O)c3ccnc(Cl)n3)nc(-c3ccc(C(=O)Nc4ccccn4)c(F)c3)c12 [Example 84, (S)-4-(8-amino-3-(1-(2-chloropyrimidine-4-carbonyl)pyrrolidin-2-yl)imidazo[1,5-a]pyrazin-1-yl)-2-fluoro-N-(pyridin-2-yl)benzamide]",<100
2,"CC#CC(=O)N1CCCC[C@H]1c1nc(-c2ccc(C(=O)Nc3nccc(C)n3)cc2)c2c(N)nccn12 [Example 89, (S)-4-(8-amino-3-(1-but-2-ynoylpiperidin-2-yl)imidazo[1,5-a]pyrazin-1-yl)-N-(4-methylpyrimidin-2-yl)benzamide]",<100

# Further lines, results first:
row,EC50 Btk activity values [nM],Compound
1,<100,"COC/C=C/C(=O)NCc1nc(-c2ccc(C(=O)Nc3ccccn3)cc2)c2c(N)nccn12 [Example 95, (E)-4-(8-amino-3-((4-methoxybut-2-enamido)methyl)imidazo[1,5-a]pyrazin-1-yl)-N-(pyridin-2-yl)benzamide]"
2,<100,"CC#CC(=O)N1CCC[C@H]1c1nc(-c2ccc(C(=O)Nc3cc(N4CCCC4)ccn3)cc2)c2c(N)nccn12 [Example 96, (S)-4-(8-amino-3-(1-but-2-ynoylpyrrolidin-2-yl)imidazo[1,5-a]pyrazin-1-yl)-N-(4-(pyrrolidin-1-yl)pyridin-2-yl)benzamide]"
3,<100,"COC/C=C/C(=O)N1CCC[C@H]1c1nc(-c2ccc(C(=O)Nc3cc(C#N)ccn3)cc2)c2c(N)nccn12 [Example 98, (S,E)-4-(8-amino-3-(1-(4-methoxybut-2-enoyl)pyrrolidin-2-yl)imidazo[1,5-a]pyrazin-1-yl)-N-(4-cyanopyridin-2-yl)benzamide]"

# Same assay, conditions: 60 min pre-incubation, 5 μM ATP, bin bounds in μM
row,Compound,EC50 Btk activity values [nM]
1,"COC/C=C/C(=O)N1CCCC[C@H]1c1nc(-c2ccc(C(=O)Nc3ccccn3)cc2C)c2c(N)nccn12 [Example 85, 4-(8-amino-3-((S)-1-((E)-4-methoxybut-2-enoyl)piperidin-2-yl)imidazo[1,5-a]pyrazin-1-yl)-3-methyl-N-(pyridin-2-yl)benzamide]",<1000
2,"COC/C=C/C(=O)N1CCCC[C@H]1c1nc(-c2ccc(C(=O)Nc3ccncn3)cc2)c2c(N)nccn12 [Example 86, (S,E)-4-(8-amino-3-(1-(4-methoxybut-2-enoyl)piperidin-2-yl)imidazo[1,5-a]pyrazin-1-yl)-N-(pyrimidin-4-yl)benzamide]",<1000
3,"CCCc1ccnc(NC(=O)c2ccc(-c3nc([C@@H]4CCCN4C(=O)/C=C/COC)n4ccnc(N)c34)c(C)c2)c1 [Example 87, 4-(8-amino-3-((S)-1-((E)-4-methoxybut-2-enoyl)pyrrolidin-2-yl)imidazo[1,5-a]pyrazin-1-yl)-3-methyl-N-(4-propylpyridin-2-yl)benzamide]",<1000
4,"COC/C=C/C(=O)N1CCCC[C@H]1c1nc(-c2ccc(C(=O)Nc3nccc(C)n3)cc2)c2c(N)nccn12 [Example 88, (S,E)-4-(8-amino-3-(1-(4-methoxybut-2-enoyl)piperidin-2-yl)imidazo[1,5-a]pyrazin-1-yl)-N-(4-methylpyrimidin-2-yl)benzamide]",<1000
5,"Nc1nccn2c([C@@H]3CCCCN3C(=O)c3ccnc(Cl)n3)nc(-c3ccc(C(=O)Nc4ncccn4)cc3)c12 [Example 90, (S)-4-(8-amino-3-(1-(2-chloropyrimidine-4-carbonyl)piperidin-2-yl)imidazo[1,5-a]pyrazin-1-yl)-N-(pyrimidin-2-yl)benzamide]",<1000

# Now from value to compound:
row,EC50 Btk activity values [nM],Compound
1,<1000,"C=C(C(=O)N1CCC[C@H]1c1nc(-c2ccc(C(=O)Nc3ccccn3)cc2)c2c(N)nccn12)C(F)(F)F [Example 92, (S)-4-(8-amino-3-(1-(2-(trifluoromethyl)acryloyl)pyrrolidin-2-yl)imidazo[1,5-a]pyrazin-1-yl)-N-(pyridin-2-yl)benzamide]"
2,<1000,"N#CCN1CCC[C@H]1c1nc(-c2ccc(C(=O)Nc3ccccn3)cc2)c2c(N)nccn12 [Example 94, (S)-4-(8-amino-3-(1-(cyanomethyl)pyrrolidin-2-yl)imidazo[1,5-a]pyrazin-1-yl)-N-(pyridin-2-yl)benzamide]"
